# Where two headings read alike, the source gives them in different places. Square brackets hold non-standard residues; d marks the D form. Ends that are not written are not given here. Peptide text beside a SMILES is read from it. * marks the point of attachment. Trp(2-Pmc) = Cc1c(C)c(S(=O)(=O)c2[nH]c3ccccc3c2C[C@H](N)C(=O)O)c(C)c2c1OC(C)(C)CC2; Fmoc = O=C(OCC1c2ccccc2-c2ccccc21)*; Acm = CC(=O)NC*
# Legend:
# [1] = system: Staphylococcus aureus ATCC 25923; type: cell-based
# Procedure, shortened: (§1)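 Bacteria in mid-log phase, grown in 2% Bacto Peptone water, were tested by standard microdilution in 1% Bacto Peptone water at an inoculum of 2×10^6 CFU/ml. Runs were in triplicate, and peptide concentration in the wells was checked by HPLC.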
# [2] = system: Escherichia coli ATCC 25922; type: cell-based
# Procedure, shortened: as §1
# [3] = system: Meth A cells (murine sarcoma cell line); test: Cytotoxicity on Meth A cells, MTT method
# Procedure: Peptide solutions (0.1 ml) were added and the plates incubated at 37° C. for 30 minutes, 4 hours or 24 hours. The cytotoxicity was measured using the MTT method (Mosmann et al., J. Immunol. (1986) 136, 2348-2357).
# Cells in the growth phase were harvested and washed in fresh medium and injected subcutaneously into the abdominal region of the mice.
# The cytotoxic effect of the peptides on different murine and human tumor cells were measured using the MTT method (Mosmann et al., J. Immunol. (1986) 136, 2348-2357). MTT is a soluble tetrazolium salt yielding a yellow solution when prepared in media or salt solutions lacking phenol red. Dissolved MTT is converted to an insoluble purple formazan by cleavage of the tetrazolium ring by dehydrogenase enzymes. This water insoluble formazan can be solubilized using isopropanol or other solvents and the dissolved material is measured spectrophotometrically. The absorbance was measured as a function of concentration of converted dye.
# Cells were maintained in […] medium containing 10% FBS, 1% L-glutamine and 0.1% penicillin and streptomycin. Cells to be used in the assay were grown to confluency, trypsinated and split to single cell suspension, counted and centrifuged at 1500 rpm for 10 min. […][…] of cell suspension was transferred to each well on a 96-well microtiter plate. The cells were stimulated by adding […] of various concentrations of peptides diluted with assay medium to each well. The final concentrations of peptide were for example: 5, 10, 20, 40, 60, 80, 100, and 200 mg/ml. […] As a negative control only medium was added to the cells, and as a positive control (100% killing) 1% triton X-100 was added. Following an incubation period of 4 h., 20 ml MTT dissolved in PBS at a concentration of 5 mg/ml was added to each well, and the plate was incubated further for 2 h. 130 ml of the supernatant were then removed and […] acid alcohol (0.04-0.1 N HCl in isopropanol) added to each well to dissolve the dark blue crystals. The plate was placed on a shaker for 1 h and read spectrophotometrically at 590 nm in a microtiterplate reader using the Softmaxâ program.
# human red blood cells = test: Hemolytic assay; type: cell-based; conditions: red cells of human
# Procedure: The hemolytic activities of the peptides were determined using fresh human red blood cells. 8 ml blood was taken from a healthy person. 4 ml blood was transferred to a polycarbonate tube containing heparin to a final concentration of 10 U/ml, and the remaining 4 ml blood was transferred to a glass tube containing EDTA with final concentration of 15% EDTA. The erythrocytes were isolated from heparin-treated blood by centrifugation in 1500 rpm for 10 min and washed three times with phosphate-buffered saline (PBS) to remove plasma and buffy coat. The cell pellet was resuspended in PBS to make the final volume of 4 ml. The peptide was diluted to a concentration of 2 mg/ml and 0.1 mg/ml. The peptide was further diluted to the concentrations as stated in Table 15. For each tube PBS was added first, then RBCs and peptide solutions. The hematocrit in the blood treated with EDTA was determined after 30 min with Sysmex K-1000, and the resuspended RBCs were diluted into 10% hematocrit. RBCs in PBS (1%) with and without peptides (Table 15) were incubated in a shaker at […] for 1 hour and then centrifuged at 4000 rpm for 5 min. The supernatant were carefully transferred to new polycarbonate tubes and the absorbance of the supernatant was measured at 540 nm. Baseline hemolysis was hemoglobin released in the presence of PBS, and 100% hemolysis was hemoglobin released in the presence of 0.1% Triton X-100.
# [4] = read-out: MethA IC 50, Table 7, peptide required to kill 50% of MethA cells
Molecule,MIC S. aureus ([1]; ATCC 25923) [µg/mL],MIC E. coli ([2]; ATCC 25922) [µg/mL],MethA IC50 ([3]; 4 h) [µg/mL],EC50 (human red blood cells) [µM],other results
CSCC[C@H](NC(=O)[C@H](CCCNC(=N)N)NC(=O)[C@H](Cc1c[nH]c2ccccc12)NC(=O)[C@H](CCC(N)=O)NC(=O)[C@H](Cc1c[nH]c2ccccc12)NC(=O)[C@H](CCCNC(=N)N)NC(=O)[C@H](CCCNC(=N)N)NC(=O)[C@H](CSCNC(C)=O)NC(=O)[C@H](CCCCN)NC(=O)[C@@H](N)Cc1ccccc1)C(=O)N[C@@H](CCCCN)C(=O)N[C@@H](CCCCN)C(=O)N[C@@H](CC(C)C)C(=O)N[C@@H](C)C(=O)N[C@@H](C)C(=O)O [LFB A14] (H-FKC(Acm)RRWQWRMKKLAA-OH),160,25,500,–,–
Linear LFB (17-41) modified with Pmc: linear LFB (17-41) modified with Pmc,–,–,–,–,cytotoxic effect on Meth A cells compared with another peptide [3]: slightly more effective than Pmc modified LFB 17-31
CSCC[C@H](NC(=O)[C@H](CCCNC(=N)N)NC(=O)[C@H](Cc1c[nH]c2ccccc12)NC(=O)[C@H](C)NC(=O)[C@H](Cc1c[nH]c2ccccc12)NC(=O)[C@H](CCCNC(=N)N)NC(=O)[C@H](CCCNC(=N)N)NC(=O)OCC1c2ccccc2-c2ccccc21)C(=O)N[C@@H](CCCCN)C(=O)N[C@@H](CCCCN)C(=O)O [LFB 20-28 A4 FMOC] (Fmoc-RRWAWRMKK-OH),–,–,120,–,–
H-FKARRWQWRMKKLGA-OH [LFB A3],100,25,500,–,–
"PAWFKARRWAWRMKK-OH [LFB 14-28 A2,6, 10]",–,–,–,> 438,IC50 ([3]; 4 h): > 248 µM
CSCC[C@H](NC(=O)[C@H](CCCNC(=N)N)NC(=O)[C@H](C)NC(=O)[C@H](CCC(N)=O)NC(=O)[C@H](Cc1c(S(=O)(=O)c2c(C)c(C)c3c(c2C)CCC(C)(C)O3)[nH]c2ccccc12)NC(=O)[C@H](CCCNC(=N)N)NC(=O)[C@H](CCCNC(=N)N)NC(=O)[C@H](CSCNC(C)=O)NC(=O)[C@H](CCCCN)NC(=O)[C@@H](N)Cc1ccccc1)C(=O)N[C@@H](CCCCN)C(=O)N[C@@H](CCCCN)C(=O)N[C@@H](CC(C)C)C(=O)NCC(=O)N[C@@H](C)C(=O)O [LFB A8 PMC] (H-FKC(Acm)RR[Trp(2-Pmc)]QARMKKLGA-OH),17.5,15,275,–,–
"PAWRKAFRWAWRMKKLAA-OH [LFB 14-31 A2,6, 10, 17F7R4]",2.5,10,–,> 440,"IC50 [3, 4]: 30.2 µM"
"CC(=O)NCSC[C@H](NC(=O)[C@H](CCCCN)NC(=O)[C@@H](N)Cc1ccccc1)C(=O)N[C@@H](Cc1c[nH]c2ccccc12)C(=O)N[C@@H](CCCNC(=N)N)C(=O)N[C@@H](Cc1c[nH]c2ccccc12)C(=O)N[C@@H](CCC(N)=O)C(=O)N[C@@H](Cc1c[nH]c2ccccc12)C(=O)N[C@@H](CCCNC(=N)N)C(=O)N[C@@H](Cc1c[nH]c2ccccc12)C(=O)N[C@@H](CCCCN)C(=O)N[C@@H](CCCCN)C(=O)N[C@@H](CC(C)C)C(=O)NCC(=O)N[C@@H](C)C(=O)O [LFB W4, 10, H2N-Phe-Lys-Cys-Trp-Arg-Trp-Gln-Trp-Arg-Trp-Lys-Lys-Leu-Gly-Ala-COOH] (H-FKC(Acm)WRWQWRWKKLGA-OH)",10,5,–,–,"MIC S. aureus ([1]; Table 6, unit assumed): 10 µg/mL; MIC E. coli ([2]; Table 6): 5 µg/mL; Meth A IC50 ([3]; 4 h): 500 µg/mL; % Hemolysis 10 μg/ml (human red blood cells; 10): 4.45%; % Hemolysis 100 μg/ml (human red blood cells; 100): 27.8%"
"PAWFKAFRWAWRMLKKAA-OH [LFB 14-31 A2,6, 10, 17F7K16L14]",10,10,–,> 440,"IC50 [3, 4]: 28.1 µM"
